Measured values: article PMC9227106 (Viruses, 2022)
Where “and” joins values, the source holds several entries; their conditions need not be identical. Identical values can stand only once. Like-named read-outs stand apart in the source and are kept apart here.

Key:
[1] = system: Vpr-induced G2/M arrest in Vpr transfected HeLa cells; assay: Analysis of the cell cycle using flow cytometry; type: cell-based, human; details: for recovery of the G2-arrest mediated by Vpr (flow cytometry): 10 μM, Vpr-expressing HeLa cells, result in words; for G2 arrest recover (Flow cytometry) Vpr G1% / G2 arrest recover (Flow cytometry) Vpr G2% / G2 arrest recover (Flow cytometry) Vpr G2/G1: Flag-Vpr transfected HeLa; for G2 arrest recover (Flow cytometry) Vpr G1% / G2 arrest recover (Flow cytometry) Vpr G2% / G2 arrest recover (Flow cytometry) Vpr G2/G1 / G2 arrest recover (Flow cytometry) ZsG G1% / G2 arrest recover (Flow cytometry) ZsG G2% / G2 arrest recover (Flow cytometry) ZsG G2/G1: 10 µM; for G2 arrest recover (Flow cytometry) ZsG G1% / G2 arrest recover (Flow cytometry) ZsG G2% / G2 arrest recover (Flow cytometry) ZsG G2/G1: control vector (ZsG) transfected HeLa
Flag-Vpr in HeLa cells [2] = assay: Localization of Vpr visualized by confocal microscopy; type: cell-based, HIV-1; details: 10 μM, 44 h post-treatment
[3] = Cell-based cytotoxicity analysis, WST-1 assay (HeLa cell); details: human; for viability at 48 h, 10 µM: vs DMSO; for CC50: 50% cytotoxic concentration, HeLa cells, WST-1
HIV-1 NF462 = assay: Inhibition assay of HIV replication in HIV-infected MDM (p24 ELISA); type: cell-based; details: for inhibition of HIV-1 replication in MDM / inhibition at 10 µM: 10 µM; for inhibition of HIV-1 replication in MDM: two healthy donors 1 and 2, result in words; for inhibition at 10 µM: 8 days; for IC50: read-out: MDM IC50; for MDM SI: selective index, calculated as CC50/IC50 in MDM
[4] = system: Vpr-induced G2/M arrest in Vpr transfected HeLa cells; assay: Cell-based G2 arrest inhibition assay using […]; design: species or system human; details: 10 µM, 44 h; for G2 arrest recover (CELAVIEW) recover rate vs DMSO(%): added 4 h post-transfection
GST-tagged Vpr protein = biological target: T1, GST-tagged Vpr protein (Human immunodeficiency virus type 1 group M subtype B, UniProt P12520); assay: Surface plasmon resonance (SPR) binding analysis; design: species or system HIV-1; details: for direct binding to Vpr (SPR): 50 μM compound, GST-Vpr on sensor chip, result in words; for Vpr Binding Kd: SPR (Biacore), GST-Vpr, 3.13 to 100 µM, two independent experiments
T1 construct: made in house; host or cells: E. coli
T1 sequence (P12520 whole entry): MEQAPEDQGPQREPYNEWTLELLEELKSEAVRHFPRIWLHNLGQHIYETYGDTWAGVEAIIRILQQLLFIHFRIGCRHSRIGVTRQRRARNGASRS

[5] = Cell-based cytotoxicity analysis, WST-1 assay (MDM cell); details: human
Flag-Vpr in HeLa cells [6] = assay: Expression level of Vpr assessed by Western blotting analysis; type: cell-based, HIV-1; details: 10 μM, 44 h post-treatment
[7] = average of n=1 and n=2, read-out: HeLa viability (%) AVERAGE
[8] = replicate 1, read-out: HeLa viability (%) viability n=1
[9] = replicate 2, read-out: HeLa viability (%) viability n=2
[10] = Human immunodeficiency virus 1, MDM donor 1, p24 ELISA, read-out: HIV replication inhibition (%) Donor 1
[11] = Human immunodeficiency virus 1, MDM donor 2, p24 ELISA, read-out: HIV replication inhibition (%) Donor 2
[12] = Human immunodeficiency virus 1, HIV-1 NF462-infected MDM, donors 1 and 4, 8 days, p24 ELISA

SMILES | recovery of the G2-arrest mediated by Vpr (flow cytometry) [1] | G2 arrest recover (Flow cytometry) Vpr G1% [1] | G2 arrest recover (Flow cytometry) Vpr G2% [1] | G2 arrest recover (Flow cytometry) Vpr G2/G1 [1] | G2 arrest recover (Flow cytometry) ZsG G1% [1] | G2 arrest recover (Flow cytometry) ZsG G2% [1] | G2 arrest recover (Flow cytometry) ZsG G2/G1 [1] | localization of Vpr in HeLa cells (Flag-Vpr in HeLa cells [2]) | viability at 48 h, 10 µM [3, 7] | viability at 48 h, 10 µM [3, 8] | viability at 48 h, 10 µM [3, 9] | CC50 [3] | inhibition of HIV-1 replication in MDM (HIV-1 NF462) | inhibition at 10 µM (HIV-1 NF462; [10]) | inhibition at 10 µM (HIV-1 NF462; [11]) | MDM SI (HIV-1 NF462) | G2 arrest recover (CELAVIEW) cell count vs DMSO [4] | G2 arrest recover (CELAVIEW) recover rate vs DMSO(%) [4] | CC50 at 48 h [5] | viability at 10 days, 10 µM [5] | further results
COc1ccc2ccccc2c1C1C=C(c2ccccc2)NC(=S)N1 (stereo not shown) [VTD232, 4-(2-methoxy-1-naphthyl)-6-phenyl-3,4-dihydro-2(1H)-pyrimidinethione] | recovered the G2-arrest mediated by Vpr | 29.06% | 39.99% | 1.376 | 49.39% | 11.48% | 0.2324 | not affected | 87.5% | 88% | 87% | 57.1 ± 30.9 µM | potently inhibited HIV-1 replication | 99.1% | 82.2% | 7820 | 95.1 | 49.2% | 30.5 ± 5 µM | 116% | IC50 (HIV-1 NF462; [12]): 0.0039 ± 0.0046 µM; direct binding to Vpr (SPR) (GST-tagged Vpr protein): did not directly bind to Vpr; Vpr Binding Kd (GST-tagged Vpr protein): Not binding; expression level of Vpr in HeLa cells (Flag-Vpr in HeLa cells [6]): not affected
CCOc1ccc(OCC(=O)Nc2cc(C)nn2-c2nc(C)c(CC)c(O)n2)cc1 [VTD263, 2-(4-ethoxyphenoxy)-N-[1-(5-ethyl-6-methyl-4-oxo(3-hydropyrimidin-2-yl))-3-methylpyrazol-5-yl]acetamide] | recovered the G2-arrest mediated by Vpr | 45.86% | 23.17% | 0.5052 | 43.35% | 18.73% | 0.4321 | not affected | 70.1% | 65.5% | 74.7% | > 100 µM | potently inhibited HIV-1 replication | 91.2% | 73.3% | 3.4 | 81.6 | 95.5% | 38.8 ± 0.76 µM | 131% | effect on HIV-1 replication at low concentration (HIV-1 NF462; 0.01 to 0.001 μM, MDM): tended to increase HIV-1 replication; IC50 (HIV-1 NF462; Human immunodeficiency virus 1, […]): 11.4 ± 4 µM; effect on HIV-1 virus release at high concentration (HIV-1 NF462; high concentration, MDM): decreased the HIV-1 virus release; direct binding to Vpr (SPR) (GST-tagged Vpr protein): did not directly bind to Vpr; Vpr Binding Kd (GST-tagged Vpr protein): Not binding; expression level of Vpr in HeLa cells (Flag-Vpr in HeLa cells [6]): not affected
COCCCNC(=O)C(=O)N/N=C/c1c(O)ccc2ccccc12 [VTD227, N-[(1E)-2-(2-hydroxynaphthyl)-1-azavinyl]-N′-(3-methoxypropyl)ethane-1,2-diamide] | recovered the G2-arrest mediated by Vpr | 41.76% | 22.13% | 0.52 and 0.5299 | 44.2% | 25.62% | 0.57 and 0.5796 | not affected | 89.2% | 84.2% | 94.2% | 99 ± 22 µM | potently inhibited HIV-1 replication | 99.5% | 103% | 22.9 | 72.8 | 60.0% | 17.9 ± 5.3 µM | 82% | IC50 (HIV-1 NF462; [12]): 0.78 ± 0.59 µM; Kd (GST-tagged Vpr protein): 8.8 ± 0.48 µM; expression level of Vpr in HeLa cells (Flag-Vpr in HeLa cells [6]): not affected
